The compounds below were run against recombinant CaMKIIδ (Homo sapiens (Human), UniProt Q13557) (assay: CaMKIIδ biochemical assay (HTRF)). Settings: 10 pM CaMKIIδ, 110 nM calmodulin, 12 μM ATP, 1 hour; read-out: CAMKIID-HTRF-384V2 (IC50 - nM).
Experimental: CaMKIIδ Biochemical Assay
The biochemical activity of recombinant CaMKIIδ was measured by monitoring the phosphorylation of a target peptide using Homogenous Time Resolved Fluorescence (HTRF) technology from CisBio Bioassays.

Row | Structure (SMILES) | IC50 [nM]
1 | NC[C@H]1CCCCN1C(=O)c1cc(-c2cnn3ccc(-c4ccccc4)nc23)ncc1N [Example 138, (R)-(5-amino-2-(5-phenylpyrazolo[1,5-a]pyrimidin-3-yl)pyridin-4-yl)(2-(aminomethyl)piperidin-1-yl)methanone] | 0.4
2 | CCN(CC)[C@@H](C)CNC(=O)c1cc(O[C@@H]2CCOC2)nc(-c2cnn3ccc(-c4cccs4)nc23)c1 [Example 346, N—((S)-2-(diethylamino)propyl)-2-(((R)-tetrahydrofuran-3-yl)oxy)-6-(5-(thiophen-2-yl)pyrazolo[1,5-a]pyrimidin-3-yl)isonicotinamide] | 1.07
3 | C[C@@]1(CNC(=O)c2ccnc(-c3cnn4ccc(-c5cccs5)nc34)c2)CCCN1 [Example 12, (S)—N-((2-methylpyrrolidin-2-yl)methyl)-2-(5-(thiophen-2-yl)pyrazolo[1,5-a]pyrimidin-3-yl)isonicotinamide] | 14.9
4 | COc1cc(C(=O)N2CC[C@H](N)C2)cc(-c2cnn3ccc(-c4ccccc4)nc23)n1 [Example 126, (S)-(3-aminopyrrolidin-1-yl)(2-methoxy-6-(5-phenylpyrazolo[1,5-a]pyrimidin-3-yl)pyridin-4-yl)methanone] | 65.6
5 | CCN(CC)[C@@H](C)CNC(=O)c1cc(N)nc(-c2cnn3ccc(-c4ccccc4)nc23)c1 [Example 114, (S)-2-amino-N-(2-(diethylamino)propyl)-6-(5-phenylpyrazolo[1,5-a]pyrimidin-3-yl)isonicotinamide] | 0.5
6 | NC[C@H]1CCCCN1C(=O)c1cc(-c2cnn3ccc(-c4ccccc4)nc23)nc(C(F)(F)F)c1 [Example 116, (R)-(2-(aminomethyl)piperidin-1-yl)(2-(5-phenylpyrazolo[1,5-a]pyrimidin-3-yl)-6-(trifluoromethyl)pyridin-4-yl)methanone] | 5.89
7 | CCC(CNC(=O)c1ccnc(-c2cnn3ccc(-c4ccccc4)nc23)c1)NCC1CC1 (stereo not drawn) [Example 50, N-(2-((cyclopropylmethyl)amino)butyl)-2-(5-phenylpyrazolo[1,5-a]pyrimidin-3-yl)isonicotinamide] | 8.52
8 | CCCNC(CC)CNC(=O)c1ccnc(-c2cnn3ccc(-c4ccccc4)nc23)c1 (stereo not drawn) [Example 51, 2-(5-phenylpyrazolo[1,5-a]pyrimidin-3-yl)-N-(2-(propylamino)butyl)isonicotinamide] | 9.61
9 | CCN[C@H](C)CNC(=O)c1ccnc(-c2cnn3ccc(-c4cccs4)nc23)c1 [Example 33, (R)—N-(2-(ethylamino)propyl)-2-(5-(thiophen-2-yl)pyrazolo[1,5-a]pyrimidin-3-yl)isonicotinamide] | 8.44
10 | CCN(CC)[C@@H](C)CNC(=O)c1cc(-c2nccs2)nc(-c2cnn3ccc(-c4cccs4)nc23)c1 [Example 338, (S)—N-(2-(diethylamino)propyl)-2-(thiazol-2-yl)-6-(5-(thiophen-2-yl)pyrazolo[1,5-a]pyrimidin-3-yl)isonicotinamide] | 0.86
11 | CN(C)c1cc(C(=O)N2CCCC[C@@H]2CN)cc(-c2cnn3ccc(-c4cccs4)nc23)n1 [Example 106, (R)-(2-(aminomethyl)piperidin-1-yl)(2-(dimethylamino)-6-(5-(thiophen-2-yl)pyrazolo[1,5-a]pyrimidin-3-yl)pyridin-4-yl)methanone] | 1.59
12 | CN(C)c1cc(C(=O)N2CC[C@H](N)C2)cc(-c2cnn3ccc(-c4cccs4)nc23)n1 [Example 109, (S)-(3-aminopyrrolidin-1-yl)(2-(dimethylamino)-6-(5-(thiophen-2-yl)pyrazolo[1,5-a]pyrimidin-3-yl)pyridin-4-yl)methanone] | 20.8
13 | O=C(NCC12CCCN1CCC2)c1ccnc(-c2cnn3ccc(-c4cccs4)nc23)c1 [Example 3, N-((hexahydro-1H-pyrrolizin-7a-yl)methyl)-2-(5-(thiophen-2-yl)pyrazolo[1,5-a]pyrimidin-3-yl)isonicotinamide] | 5.55
14 | CCN(CC)[C@@H](C)CNC(=O)c1cc(-c2cnn3ccc(-c4cccs4)nc23)nc(N2CC[C@H]2C(=O)NOC)c1 [Example 289, N—((S)-2-(diethylamino)propyl)-2-((S)-2-(methoxycarbamoyl)azetidin-1-yl)-6-(5-(thiophen-2-yl)pyrazolo[1,5-a]pyrimidin-3-yl)isonicotinamide] | 0.65
15 | N[C@H]1CCN(C(=O)c2ccnc(-c3cnn4ccc(-c5cccs5)nc34)c2)C1 [Example 85, (S)-(3-aminopyrrolidin-1-yl)(2-(5-(thiophen-2-yl)pyrazolo[1,5-a]pyrimidin-3-yl)pyridin-4-yl)methanone] | 4.8

These reach a lower IC50. Values come first.

Row | IC50 [nM] | Structure (SMILES)
16 | 0.1 | CCN(CC)[C@@H](C)CNC(=O)c1cc(-c2cnn3ccc(-c4cccs4)nc23)nc(N2CC(C)(O)C2)c1 [Example 226, (S)—N-(2-(diethylamino)propyl)-2-(3-hydroxy-3-methylazetidin-1-yl)-6-(5-(thiophen-2-yl)pyrazolo[1,5-a]pyrimidin-3-yl)isonicotinamide]
17 | 0.31 | CC[C@@H](CNC(=O)c1cc(-c2cnn3ccc(-c4cccs4)nc23)nc(N2CC[C@H]2C(=O)NC)c1)N(CC)CC (single isomer, unassigned) [Example 356A]
18 | 0.17 | CCOC1CN(c2cc(C(=O)NC[C@H](C)N(CC)CC)cc(-c3cnn4ccc(-c5cccs5)nc34)n2)C1 [Example 143, (S)—N-(2-(diethylamino)propyl)-2-(3-ethoxyazetidin-1-yl)-6-(5-(thiophen-2-yl)pyrazolo[1,5-a]pyrimidin-3-yl)isonicotinamide]
19 | 0.33 | CCN(CC)[C@@H](C)CNC(=O)c1cc(-c2cnn3ccc(-c4cccs4)nc23)nc(-c2cnn3ccc(-c4cccs4)nc23)c1 [Example 337, (S)—N-(2-(diethylamino)propyl)-2,6-bis(5-(thiophen-2-yl)pyrazolo[1,5-a]pyrimidin-3-yl)isonicotinamide]
20 | 0.22 | NC[C@H]1CCCCN1C(=O)c1cc(Cl)nc(-c2cnn3ccc(-c4ccccc4)nc23)c1 [Example 127, (R)-(2-(aminomethyl)piperidin-1-yl)(2-chloro-6-(5-phenylpyrazolo[1,5-a]pyrimidin-3-yl)pyridin-4-yl)methanone]
21 | 0.19 | CCN(CC)[C@@H](C)CNC(=O)c1cc(-c2cnn3ccc(-c4cccs4)nc23)nc(N2CC(NC(=O)c3ncco3)C2)c1 [Example 194, (S)—N-(1-(4-((2-(diethylamino)propyl)carbamoyl)-6-(5-(thiophen-2-yl)pyrazolo[1,5-a]pyrimidin-3-yl)pyridin-2-yl)azetidin-3-yl)oxazole-2-carboxamide]
22 | 0.25 | CCN(CC)[C@@H](C)CNC(=O)c1cc(-c2cnn3ccc(-c4cccs4)nc23)nc(N2CC[C@H]2C(=O)N2CC(OC)C2)c1 [Example 295, N—((S)-2-(diethylamino)propyl)-2-((S)-2-(3-methoxyazetidine-1-carbonyl)azetidin-1-yl)-6-(5-(thiophen-2-yl)pyrazolo[1,5-a]pyrimidin-3-yl)isonicotinamide]
23 | 0.29 | CCN(CC)[C@@H](C)CNC(=O)c1cc(-c2cnoc2)nc(-c2cnn3ccc(-c4cccs4)nc23)c1 [Example 335, (S)—N-(2-(diethylamino)propyl)-2-(isoxazol-4-yl)-6-(5-(thiophen-2-yl)pyrazolo[1,5-a]pyrimidin-3-yl)isonicotinamide]
24 | 0.15 | CCN(CC)[C@@H](C)CNC(=O)c1cc(-c2cnn(CCC#N)c2)nc(-c2cnn3ccc(-c4cccs4)nc23)c1 [Example 341, (S)-2-(1-(2-cyanoethyl)-1H-pyrazol-4-yl)-N-(2-(diethylamino)propyl)-6-(5-(thiophen-2-yl)pyrazolo[1,5-a]pyrimidin-3-yl)isonicotinamide]
25 | 0.28 | CCN(CC)[C@@H](C)CNC(=O)c1cc(-c2cnn3ccc(-c4cccs4)nc23)nc(N2CCN(C(C)=O)CC2)c1 [Example 204, (S)-2-(4-acetylpiperazin-1-yl)-N-(2-(diethylamino)propyl)-6-(5-(thiophen-2-yl)pyrazolo[1,5-a]pyrimidin-3-yl)isonicotinamide]
26 | 0.07 | CCN(CC)[C@@H](C)CNC(=O)c1cc(NCCN(C)C)nc(-c2cnn3ccc(-c4cccs4)nc23)c1 [Example 157, (S)—N-(2-(diethylamino)propyl)-2-((2-(dimethylamino)ethyl)amino)-6-(5-(thiophen-2-yl)pyrazolo[1,5-a]pyrimidin-3-yl)isonicotinamide]
27 | 0.29 | CCN(CC)[C@@H](C)CNC(=O)c1cc(-c2cnn3ccc(-c4cccs4)nc23)nc(N2CC[C@H]2C(=O)N2CCCC2)c1 [Example 288, N—((S)-2-(diethylamino)propyl)-2-((S)-2-(pyrrolidine-1-carbonyl)azetidin-1-yl)-6-(5-(thiophen-2-yl)pyrazolo[1,5-a]pyrimidin-3-yl)isonicotinamide]
28 | 0.16 | CCN(CC)[C@@H](C)CNC(=O)c1cc(-c2cnn3ccc(-c4cccs4)nc23)nc(N2CC[C@H]2C(=O)N2CCOCC2)c1 [Example 293, N—((S)-2-(diethylamino)propyl)-2-((S)-2-(morpholine-4-carbonyl)azetidin-1-yl)-6-(5-(thiophen-2-yl)pyrazolo[1,5-a]pyrimidin-3-yl)isonicotinamide]
29 | 0.1 | CCN(CC)[C@@H](C)CNC(=O)c1cc(-c2cnn3ccc(-c4cccs4)nc23)nc(N2CC(CO)C2)c1 [Example 216, (S)—N-(2-(diethylamino)propyl)-2-(3-(hydroxymethyl)azetidin-1-yl)-6-(5-(thiophen-2-yl)pyrazolo[1,5-a]pyrimidin-3-yl)isonicotinamide]
30 | 0.16 | CCN(CC)[C@@H](C)CNC(=O)c1cc(-c2cnn3ccc(-c4cccs4)nc23)nc(N2CC[C@H]2C(=O)N2CCS(=O)(=O)CC2)c1 [Example 303, N—((S)-2-(diethylamino)propyl)-2-((S)-2-(1,1-dioxidothiomorpholine-4-carbonyl)azetidin-1-yl)-6-(5-(thiophen-2-yl)pyrazolo[1,5-a]pyrimidin-3-yl)isonicotinamide]
